Test results as given in patent publication US10752913B2, “Selectable marker genes” (Dow AgroSciences LLC, priority 2006, dated 2020).

How the values were obtained:
Assay type in all cases: cell-based
[1] = tested on: NT-1 tobacco cells transformed with pDAB3778 (DSM-2); test: Tobacco cell culture transformation, selection frequency; details: second experiment
Description: Four days prior to transformation, a 1 week old NT-1 tobacco suspension, which was being subcultured every 7 days, was subcultured to fresh medium by adding 2 ml of the NT-1 culture or 1 ml of packed cells into 40 ml NT-1 B media. The subcultured suspension was maintained in the dark at 25±1° C. on a shaker at 125 rpm.
A 50% glycerol stock of Agrobacterium tumefaciens [strain LBA4404] harboring a binary vector of interest was used to initiate a liquid overnight culture by adding 20, 100, or […] to 30 ml YEP liquid (10 g/L yeast extract, 10 g/L Peptone, 5 g/L NaCl, 0-10 g/L Sucrose) containing 50-100 mg/L spectinomycin. The bacterial culture was incubated in the dark at 28° C. in an incubator shaker at 150-250 rpm until the OD600 was 1.5±0.2. This took approximately 18-20 hrs.
For each vector tested, 20-70 mL of 4-day old suspension cells were transferred into a sterile vessel, to which 500-1750 μl of Agrobacterium suspension at the proper OD was added. To ensure a uniform mixture was achieved, the cells were pipetted up and down 5 times with a 10 ml wide-bore pipet. The uniform suspension was then drawn up into a 25 ml barrel of a repeat pipetter and 250 μl of the suspension was dispensed per well into 24-well plates, continuing until the suspension was exhausted. The well plates were wrapped in parafilm and cultured in the dark at 25±1° C. without shaking for a 3 day co-cultivation.
Following the co-cultivation, all excess liquid was removed from the individual wells with a 1 mL pipet tip, and remaining cells were resuspended in 1 ml NTC liquid (NT-1 B medium containing 500 mg/L carbenicillin, added after autoclaving). The contents of an individual well were dispersed across the entire surface of 100×25 mm selection plates using disposable transfer pipets. Selection media consisted of NTC media solidified with 8 g/l TC agar supplemented with 7.5 to 15 mg/L bialaphos or technical grade glufosinate ammonium, added after autoclaving. All selection plates, left unwrapped, were maintained in the dark at 28° C.
Putative transformants appeared as small clusters of callus on a background of dead, non-transformed cells. Calli were isolated approximately 2-6 weeks post-transformation. Each callus isolate was transferred to its own 60×20 mm plate containing the same selection medium and allowed to grow for approximately 2 weeks before being submitted for analysis.
A side-by-side experiment comparing DSM-2 (v2) with PAT was completed. In the study, 100% of the PAT selection plates produced at least one PCR positive isolate on 10 mg/L bialaphos media, whereas 79% of the DSM-2 (v2) selection plates produced at least one PCR positive isolate.
In a second experiment, DSM-2 (v2)-treated tobacco cells were selected upon 7.5, 10, 12.5, or 15 mg/L bialaphos or technical grade glufosinate ammonium. Transformation frequencies (% of selection plates producing at least one callus) following verification by coding region PCR are listed in the table below.

[2] = tested on: Escherichia coli BL21—Star (DE3); test: Bacterial growth on minimal media containing glufosinate (BASTA); details: only strain of five tested
Description: Selected cell lines of Escherichia coli and Agrobacterium tumefaciens were inoculated on minimal media containing incrementally increasing concentrations of Glufosinate (BASTA). The cell lines; BL21—Star (DE3), Top10, DH5═, Agrobacterium tumefaciens C58, and Agrobacterium tumefaciens LBA4404s were initially grown up on complex media. The Escherichia coli strains were grown in LB and the Agrobacterium tumefaciens strains were grown in YEP. Five microliters of bacterial culture was inoculated and dispersed evenly onto minimal media plates containing various concentrations of glufosinate. The concentrations consisted of 0 μg/ml, 250 μg/ml, 500 μg/ml, 1000 μg/ml, 2000 μg/ml, and 4000 μg/ml of BASTA. In addition, the bacterial strains were inoculated onto a plate of complex media as a control—Agrobacterium tumefaciens strains were inoculated on YEP agar plates, and Escherichia coli strains were inoculated on LB agar plates. The plates containing the Escherichia coli strains were incubated at 37° C. for 24 hours. The plates containing the Agrobacterium tumefaciens strains were incubate at 25° C. for 48 hours. […] Table 7 illustrates the capability of the various strains to grow on minimal media containing glufosinate.

[3] = tested on: Escherichia coli BL21—Star (DE3) with 3264 (CsVMV promoter//DSM-2); test: Complementation on glufosinate with plant/viral promoters; details: DSM-2 driven by CsVMV promoter
Description: (§1) Plasmid constructs in which the DSM-2 (v2) and PAT gene coding sequences were expressed, under either the viral promoters CsVMV or the plant promoter AtUbi10, were assayed for complementation on minimal media containing glufosinate. The plasmids 3778 (Rb7 MARv3//AtUbi10 promoter//DSM-2 (v2)//Atu Orf 1 3′UTR), 3779 (Rb7 MARv3//AtUbi10 promoter//PAT//Atu Orf 1 3′UTR), 3264 (CsVMV promoter//DSM-2//Atu Orf24 3′UTR), 3037 (CsVMV promoter//PAT//Atu Orf 25/26 3′UTR), and 770 (control plasmid containing CsVMV promoter//GUS v3//Atu Orf 24 3′UTR) were transformed into Escherichia coli BL21—Star (DE3) and grown up in complex media. Five microliters of the cultures were plated on minimal media containing increasing concentrations of Glufosinate and incubated at 37° C. for 48 hours.

[4] = tested on: Escherichia coli BL21—Star (DE3) with 3778 (AtUbi10 promoter//DSM-2 (v2)); test: as above; details: DSM-2 driven by At Ubi10 promoter
Description: as §1

[5] = tested on: Escherichia coli BL21—Star (DE3) expressing DSM-2 (v2) (pDAB4412); test: Complementation of cell growth on glufosinate, pET expression
From the text: A pET28a(+) expression plasmid containing PAT (v3) was constructed as a positive control. PAT (v3) was cloned as an NcoI-SacI fragment into corresponding restriction sites of pDAB779. Positive clones containing the PAT (v3) gene fragment were verified via restriction enzyme digestion. This construct was labeled as pDAB4434.
The plasmids, pDAB4434, pDAB4412, and an empty pET vector (control) were transformed into Escherichia coli BL21—Star (DE3) bacterial cells. Expression cultures were initiated with 10-200 freshly transformed colonies into 250 mL LB medium containing 50 μg/ml antibiotic and 75 μM IPTG (isopropyl-[…]). The cultures were grown at 28° C. for 24 hours at 180-200 rpm. Five microliters of the culture was inoculated onto a complex media control and minimal media containing incrementally increasing concentrations of glufosinate and 20 μM IPTG. The cultures were dispersed evenly over the plates and incubated at 28° C. for 24 hours.

Row | Structure (SMILES) | Transformation frequencies (% of selection plates producing at least one callus) following verification by coding region PCR ([1]; 7.5 mg/L in selection medium) [%] | Transformation frequencies (% of selection plates producing at least one callus) following verification by coding region PCR ([1]; 10 mg/L in selection medium) [%] | Transformation frequencies (% of selection plates producing at least one callus) following verification by coding region PCR ([1]; 12.5 mg/L in selection medium) [%] | Transformation frequencies (% of selection plates producing at least one callus) following verification by coding region PCR ([1]; 15 mg/L in selection medium) [%] | inhibition of growth on minimal media [2] | glufosinate concentration in minimal media to which resistance was provided [3] [µg/mL] | glufosinate concentration in minimal media to which resistance was provided [4] [µg/mL] | glufosinate concentration on minimal media to which DSM-2 expression complemented resistance [5] [µg/mL]
1 | C[C@H](NC(=O)[C@H](C)NC(=O)[C@@H](N)CCP(C)(=O)O)C(=O)O [Bialaphos] | 38.9 | 44.4 | 38.9 | 22.2 |  |  |  | 
2 | CP(=O)(O)CCC(N)C(=O)O (stereo not drawn) [glufosinate] | 55.6 | 50.0 | 44.4 | 38.9 | substantially inhibited | 200 | 200 | 400
